From patent US10244779B2, “Method of improving stability of sweet enhancer and composition containing stabilized sweet enhancer” (SENOMYX, INC., priority 2010, dated 2019) come the findings set out here.

As a reminder, the melting point is the temperature, or range, at which the solid turns liquid.

Data set [1] can be described thus: Photostability test of sweet enhancers with/without photostabilizers in Q-Sun Xenon Test Chamber. The protocol: Aqueous buffer solution at pH 7.1 contains 50 mM potassium dihydrogen phosphate and ˜32 mM sodium hydroxide (solutions of 1.0 M hydrochloric acid and 1.0 M sodium hydroxide are used to adjust pH). Aqueous buffer solution at pH 4.0 contains 50 mM citric acidmonosodium salt and ˜7.4 mM sodium hydroxide (solutions of 1.0 M hydrochloric acid and 1.0 M sodium hydroxide are used to adjust pH). Aqueous buffer solution at pH 2.8 contains 50 mM citric acid and ˜16 mM sodium hydroxide (solutions of 1.0 M hydrochloric acid and 1.0 M sodium hydroxide are used to adjust pH).
The stock solutions of the test compounds at 25 mM are made by dissolving the compounds in dimethyl sulfoxide. The solutions of the stabilizers are made by dissolving the materials in the aqueous buffers. The stock solutions are then diluted to 25 μM with the stabilizer solutions to prepare the test solution and 4-mL aliquots of the solutions are transferred to 20-mL clear glass vial for testing.
Accelerated photodegradation was studied using a Q-Sun Xenon Test Chamber (Q-Lab Model No. Xe-1-SC) at an irradiance setting of 350 mW/m^2 at 340 nm and temperature of 25 degrees Celsius. To put this in perspective, 24 hours of constant Q-Sun irradiation at these settings is approximately equivalent to 12.4 days of direct sunlight in the southwestern United States. At 0, 1, 2, 4, and 6 hours from the beginning of the radiation, a 0.4-mL aliquot from each vial is pippeted out to a 1-mL glass insert for analysis.
The samples are analyzed using an Agilent 1100 LC/MSD equipped with a quaternary pump and a diode-array detector (DAD). The peak areas from the MSD chromatograms are used for quantitation, and the photostability is shown by plotting the percentages of the test compound which remains intact at all time points. The peak areas from the DAD chromatograms are used for quantitation for stabilizers with concentration at 250 uM or higher. The instrument conditions are listed below. • Column: YMC ODS AQ 3 um, 4.0×23 mm • Column Temperature: Room temperature • Auto-sampler Temperature: Room temperature • Mobile Phase A: Water • Mobile Phase B: Methanol • Mobile Phase C: 1% Formic Acid • Gradient: % C is constant at 5%; % B from 5% to 95% in 2 min, then back to 5% at 2.1 min, and then held at 5% until 3.25 min; flow rate is 2 mL/min • Injection volume: 10 uL • Data Collection time: 2.75 minutes • MSD ion source: APCI • MSD Signal settings: Positive, selected ion monitoring (SIM) at the mass of the expected molecular ions. • UV detection wavelength: 230 nm. • MSD detection start time: 0.5 min
FIGS. 2 and 3 illustrate the photostability study of Compounds A and B under these condition: Direct sunlight was modeled using a Q-Sun Xenon Test Chamber (Q-Lab Model No. Xe-1-SC) at an irradiance setting of 350 mW/m^2 @340 nm, 25° C. Test samples were irradiated in the Q-Sun at these settings in pH 2.8 buffer with/without Compounds A and B in the presence/absence of the photo-stabilizers A (chlorogenic acid) and B (rutin, a.k.a. quercetin-3-rutinoside).
Direct sunlight was modeled using a Q-Sun Xenon Test Chamber (Q-Lab Model No. Xe-1-SC) at an irradiance setting of 350 mW/m^2 @340 nm, 25° C. Test samples were irradiated in the Q-Sun at these settings in pH 2.8 buffer with Compound A in the presence/absence of the photo-stabilizers. […] Direct sunlight was modeled using a Q-Sun Xenon Test Chamber (Q-Lab Model No. Xe-1-SC) at an irradiance setting of 350 mW/m^2 @340 nm, 25° C. Test samples were irradiated in the Q-Sun at these settings in pH 2.8 buffer with 25 μM of Compound A in the presence/absence of the photo-stabilizers at a concentration of 100 ppm. […] Direct sunlight was modeled using a Q-Sun Xenon Test Chamber (Q-Lab Model No. Xe-1-SC) at an irradiance setting of 350 mW/m^2 @340 nm, 25° C. Test samples were irradiated in the Q-Sun at these settings in pH 2.8 buffer with sweet enhancer Compound E in the presence/absence of the photostabilizers.

The mark [2] stands for this setting: % of 25 μM Compound A remaining with the cinnamic acid or coumarin derivative at 100 ppm (Table 4), pH 2.8 buffer, Q-Sun 350 mW/m^2 @340 nm, 25° C.

In the case of `COc1cc(C=CC(=O)O)cc(OC)c1O` (stereo in doubt) [sinapinic acid], in data set [1] (setting [2]), the “% Remaining @ 1 hr” value amounted to 100.00%, the “% Remaining @ 2 hrs” value worked out at 99.98%, the “% Remaining @ 4 hrs” value is 100.12% and the “% Remaining @ 6 hrs” value is listed as 98.52%.

With `COc1ccc2ncc(C(=O)O)c(N)c2c1` [Compound B], in data set [1] (pH 2.8), the “% of compound degraded after 6 hr of irradiation” value is given as “about 80%”.

Compound `CCC(CC)COc1cccc2nc(C)c(C(=O)O)c(N)c12` [Example 22, 4-amino-5-(2-ethylbutoxy)-2-methylquinoline-3-carboxylic Acid] showed a melting point of 145 to 151 °C.

For `Cc1nc2cccc(OCC(C)(C)NC(=O)c3ccncc3)c2c(N)c1C(=O)O` [Example 24, 4-amino-5-(2-(isonicotinamido)-2-methylpropoxy)-2-methylquinoline-3-carboxylic Acid], the melting point was 195 to 198 °C.

In turn, `Cc1nc2cccc(OCC(C)(C)NC(=O)c3cccc(O)c3)c2c(N)c1C(=O)O` [Example 25, 4-amino-5-(2-(3-hydroxybenzamido)-2-methylpropoxy)-2-methylquinoline-3-carboxylic Acid] yielded a melting point of 195 to 198 °C.

With `Cc1nc2cccc(OC3CCCCC3)c2c(N)c1C(=O)O` [Example 36, 4-amino-5-(cyclohexyloxy)-2-methylquinoline-3-carboxylic Acid], the melting point was 220 to 221.5 °C.

In turn, `Cc1nc2cccc(OCC(C)C)c2c(N)c1C(=O)O` [Example 41, 4-amino-5-isobutoxy-2-methylquinoline-3-carboxylic Acid] came in with a melting point of 203.7 °C.

The compound `Cc1nc2cccc(OCC(C)(C)C(=O)NC3CC3)c2c(N)c1C(=O)O` [Example 135, 4-amino-5-(3-(cyclopropylamino)-2,2-dimethyl-3-oxopropoxy)-2-methyl-quinoline-3-carboxylic Acid] returned a melting point of 227 to 229 °C.

Consider `Cc1nc2cccc(OCC(C)(C)C(=O)NC3CCC3)c2c(N)c1C(=O)O` [Example 136, 4-amino-5-(3-(cyclobutylamino)-2,2-dimethyl-3-oxopropoxy)-2-methylquinoline-3-carboxylic Acid], for which the melting point fell in the range of 183 to 187 °C.

`Cc1nc2cccc(O[C@H]3CC[C@H](NC(=O)C(C)C)CC3)c2c(N)c1C(=O)O` [Example 137, 4-amino-5-(((1,4)-trans-4-isobutyramidocyclohexyl)oxy)-2-methylquinoline-3-carboxylic Acid] gave a melting point of 183 to 185 °C.

Compound `Cc1nc2cccc(OCC(C)(C)NC(=O)CC(C)C)c2c(N)c1C(=O)O` [Example 138, 4-amino-2-methyl-5-(2-methyl-2-(3-methylbutanamido)propoxy)quinoline-3-carboxylic Acid] returned a melting point of 195 to 198 °C.

For `Cc1nc2cccc(OCC(C)(C)NC(=O)C(C)C)c2c(N)c1C(=O)O` [Example 139, 4-amino-5-(2-isobutyramido-2-methylpropoxy)-2-methylquinoline-3-carboxylic Acid], the melting point is 184 to 186 °C.

Regarding `Cc1nc2cccc(OCC(C)(C)NC(=O)C3CCOCC3)c2c(N)c1C(=O)O` [Example 140, 4-amino-2-methyl-5-(2-methyl-2-(tetrahydro-2H-pyran-4-carboxamido)-propoxy)quinoline-3-carboxylic Acid], the melting point was in the range of 170 to 173 °C.

With `CCC(=O)NC(C)(C)COc1cccc2nc(C)c(C(=O)O)c(N)c12` [Example 141, 4-amino-2-methyl-5-(2-methyl-2-propionamidopropoxy)quinoline-3-carboxylic Acid], the melting point lay within 189 to 193 °C.

`Cc1nc2cccc(OCC(C)(C)NC(=O)C3CCC3)c2c(N)c1C(=O)O` [Example 142, 4-amino-5-(2-(cyclobutanecarboxamido)-2-methylpropoxy)-2-methylquinoline-3-carboxylic Acid] gave a melting point of 186 to 190 °C.

For `Cc1nc2cccc(OC3CCN(C(=O)C(C)C)CC3)c2c(N)c1C(=O)O` [Example 143, 4-amino-5-((1-isobutyrylpiperidin-4-yl)oxy)-2-methylquinoline-3-carboxylic Acid], the melting point lay in the range of 184 to 186 °C.

Regarding `CCNC(=O)C(C)(C)COc1cccc2nc(C)c(C(=O)O)c(N)c12` [Example 144, 4-amino-5-(3-(ethylamino)-2,2-dimethyl-3-oxopropoxy)-2-methylquinoline-3-carboxylic Acid], the melting point fell in the range of 168 to 170 °C.

For the compound `O=C(O)/C=C/c1ccc(O)c(O)c1` [caffeic acid], in data set [1] (buffer, 1 h, 100 ppm, pH 2.8), the “% Remaining @ 1 hr” value is listed as 98.02%. Besides, in data set [1] (buffer, 2 h, 100 ppm, pH 2.8), the “% Remaining @ 2 hrs” value was found to be 99.54%. The “% Remaining @ 4 hrs” value in data set [1] (buffer, 4 h, 100 ppm, pH 2.8) is recorded as 98.74%. In data set [1] (buffer, 6 h, 100 ppm, pH 2.8), the “% Remaining @ 6 hrs” value turned out to be 95.55%.

Regarding `O=c1ccc2ccc(O)c(O)c2o1` [daphnetin], in data set [1] (buffer, 1 h, 100 ppm, pH 2.8), the “% Remaining @ 1 hr” value is on record as 99.13%. Further, the “% Remaining @ 2 hrs” value in data set [1] (buffer, 2 h, 100 ppm, pH 2.8) is recorded as 99.76%. Also, the “% Remaining @ 4 hrs” value in data set [1] (buffer, 4 h, 100 ppm, pH 2.8) was 98.13%.

On to `COc1cc(/C=C/C(=O)O)ccc1O` [ferulic acid], for which the “% Remaining @ 1 hr” value in data set [1] (buffer, 1 h, 100 ppm, pH 2.8) amounted to 95.41%. For the same compound, the “% Remaining @ 2 hrs” value in data set [1] (buffer, 2 h, 100 ppm, pH 2.8) was determined as 96.49%. The “% Remaining @ 4 hrs” value in data set [1] (buffer, 4 h, 100 ppm, pH 2.8) came to 93.43%. For the same compound, in data set [1] (buffer, 6 h, 100 ppm, pH 2.8), the “% Remaining @ 6 hrs” value was determined as 93.85%.

Take `COc1cc([C@@H]2CC(=O)c3c(O)cc(O)cc3O2)ccc1O` [homoeriodictol, homoeriodictyol]: the “% Remaining @ 1 hr” value in data set [1] (buffer, 1 h, 12.5 ppm, pH 2.8) was found to be 90.83%. Besides, the “% Remaining @ 2 hrs” value in data set [1] (buffer, 2 h, 12.5 ppm, pH 2.8) is 82.75%. Also, the “% Remaining @ 4 hrs” value in data set [1] (buffer, 4 h, 12.5 ppm, pH 2.8) was 57.70%. In addition, the “% Remaining @ 6 hrs” value in data set [1] (buffer, 6 h, 12.5 ppm, pH 2.8) is reported as 24.54%.

As for `C[C@@H]1O[C@@H](O[C@H]2[C@H](Oc3cc(O)c4c(c3)O[C@H](c3ccc(O)cc3)CC4=O)O[C@H](CO)[C@@H](O)[C@@H]2O)[C@H](O)[C@H](O)[C@H]1O` [naringin], the “% Remaining @ 1 hr” value in data set [1] (buffer, 1 h, 50 ppm, pH 2.8) was determined as 90.42%. In addition, in data set [1] (buffer, 2 h, 50 ppm, pH 2.8), the “% Remaining @ 2 hrs” value came to 75.92%. Besides, the “% Remaining @ 4 hrs” value in data set [1] (buffer, 4 h, 50 ppm, pH 2.8) came out at 55.54%. In addition, the “% Remaining @ 6 hrs” value in data set [1] (buffer, 6 h, 50 ppm, pH 2.8) is reported as 41.50%.

For the compound `COc1ccc(CCC(=O)c2c(O)cc(O[C@@H]3O[C@H](CO)[C@@H](O)[C@H](O)[C@H]3O[C@@H]3O[C@@H](C)[C@H](O)[C@@H](O)[C@H]3O)cc2O)cc1O` [neohesperidin dihydrochalcone], the “% Remaining @ 1 hr” value in data set [1] (buffer, 1 h, 50 ppm, pH 2.8) was 91.42%. Further, in data set [1] (buffer, 2 h, 50 ppm, pH 2.8), the “% Remaining @ 2 hrs” value amounted to 82.53%. In addition, in data set [1] (buffer, 4 h, 50 ppm, pH 2.8), the “% Remaining @ 4 hrs” value came to 66.95%. In addition, the “% Remaining @ 6 hrs” value in data set [1] (buffer, 6 h, 50 ppm, pH 2.8) turned out to be 56.72%.

Turning to `O=C(CCc1ccc(O)cc1)c1c(O)cc(O)cc1O` [phloretin], the “% Remaining @ 1 hr” value in data set [1] (buffer, 1 h, 25 ppm, pH 2.8) is reported as 89.62%. In addition, the “% Remaining @ 2 hrs” value in data set [1] (buffer, 2 h, 25 ppm, pH 2.8) turned out to be 80.75%. For the same compound, the “% Remaining @ 4 hrs” value in data set [1] (buffer, 4 h, 25 ppm, pH 2.8) came to 64.60%. Also, the “% Remaining @ 6 hrs” value in data set [1] (buffer, 6 h, 25 ppm, pH 2.8) was determined as 50.64%.

As for `COc1cc2ccc(=O)oc2cc1O` [scopoletin], in data set [1] (buffer, 4 h, 100 ppm, pH 2.8), the “% Remaining @ 4 hrs” value is recorded as 100.07%. Besides, in data set [1] (buffer, 6 h, 100 ppm, pH 2.8), the “% Remaining @ 6 hrs” value is reported as 95.72%.
